Results on one compound are retold here after US20230398095A1, “THERAPEUTIC AGENT FOR TREATMENT OF AGE-RELATED MACULAR DEGENERATION” (priority 2022, published 2023).

The experiment concerns Human Tenon's capsule fibroblasts (HTCF). The experiment in a line: Oxidative stressor dosage curve, cell metabolic activity (MTT) of HTCF. Format: cell-based. To be noted: one-hour incubation, dose-dependent, n=4. As for the experimental part:
The following preferred method was utilized in conducting the experiment: • 1) Culture cells (90% confluence) • 2) Load 5×10^4 cells/well in 24-well plates • 3) Change to serum-free medium overnight • 4) Treat cells • 5) Measure cell metabolic activity (MTT) or % cytotoxicity (LDH) • 6) Normalize results • 7) Replicate experiment with cell lines from different patients • 8) Conduct statistical analysis
1. Treat cells with serum free medium and tert-butyl hydroperoxide (t-BOOH) at 0 mM (VC), […], 0.1 mM, 0.5 mM, 1 mM and 2 mM for 30 min, 1 h, 2 h, 3 h
2. Measure cell metabolic activity with 3-(4,5-dimethylthiazol-2-yl)-2,5-diphenyltetrazolium bromide (MTT) assay
FIGS. 5A-5D show the cell metabolic activity of HTCF cells in response to treatment with tert-butyl hydroperoxide (t-BOOH).
Dose-dependent effect of a one-hour incubation.

As to `CC(C)(C)OO` [tert-butyl hydroperoxide (t-BOOH), Tert-butyl hydroperoxide], the “cell metabolic activity versus control sample” value was “significant effect versus the control sample”.
